Experiment [1] concerns the target T1, non-endogenous FSHR ("L460R") (Homo sapiens, UniProt P23945, E197A/L198V/L460R/N112T).
T1 construct: expressed in transfected cells
T1 sequence (P23945 18-695 N112T/E197A/L198V/L460R): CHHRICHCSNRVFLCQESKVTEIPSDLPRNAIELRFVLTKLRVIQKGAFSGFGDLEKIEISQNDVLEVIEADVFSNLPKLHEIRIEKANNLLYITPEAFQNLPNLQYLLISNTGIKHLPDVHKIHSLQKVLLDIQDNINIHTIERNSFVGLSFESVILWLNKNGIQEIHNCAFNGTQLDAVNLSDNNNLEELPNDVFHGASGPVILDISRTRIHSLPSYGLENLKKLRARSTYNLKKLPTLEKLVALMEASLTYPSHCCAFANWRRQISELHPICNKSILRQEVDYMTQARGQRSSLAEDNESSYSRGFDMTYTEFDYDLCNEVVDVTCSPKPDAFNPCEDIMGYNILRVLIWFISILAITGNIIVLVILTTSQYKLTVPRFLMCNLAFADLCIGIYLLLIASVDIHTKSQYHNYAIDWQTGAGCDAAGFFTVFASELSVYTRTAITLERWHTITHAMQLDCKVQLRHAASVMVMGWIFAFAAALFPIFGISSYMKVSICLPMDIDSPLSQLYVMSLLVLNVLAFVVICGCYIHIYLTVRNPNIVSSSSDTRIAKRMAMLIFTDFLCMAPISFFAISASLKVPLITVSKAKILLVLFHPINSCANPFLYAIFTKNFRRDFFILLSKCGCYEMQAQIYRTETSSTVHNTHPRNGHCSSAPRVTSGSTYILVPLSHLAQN
Kind of experiment: Alpha Screen cAMP accumulation, non-endogenous constitutively activated FSHR (L460R). The class given is cell-based. The note with it: L460R versus WT, FIG. 3. Here is the method:
(§1) Approximately 12×10^6 293 cells are plated on a 15 cm tissue culture plate. Grown in DME High Glucose Medium containing ten percent fetal bovine serum and one percent sodium pyruvate, L-glutamine, and anti-biotics. Twenty-four hours following plating of 293 cells (or to ˜80% confluency), the cells are transfected using 12 μg of DNA. The 12 μg of DNA is combined with 60 μl of lipofectamine and 2 mL of DME High Glucose Medium without serum. The medium is aspirated from the plates and the cells are washed once with medium without serum. The DNA, lipofectamine, and medium mixture are added to the plate along with 10 mL of medium without serum. Following incubation at 37 degrees Celsius for four to five hours, the medium is aspirated and 25 ml of medium containing serum is added. Twenty-four hours following transfection, the medium is aspirated again, and fresh medium with serum is added. Forty-eight hours following transfection, the medium is aspirated and medium with serum is added containing geneticin (G418 drug) at a final concentration of 500 μg/mL. The transfected cells will undergo selection for positively transfected cells containing the G418 resistant gene. […]
(§2) The media from Example 3(b) above was aspirated and rinsed 1× with PBS (5-10 ml/flask). […] Following incubation, the wells were read on Alpha Quest and measured for light units. […]

In a further experiment the target is T2, endogenous FSHR ("WT") (Homo sapiens, UniProt P23945, E197A/L198V/N112T).
T2 construct: The 2.1 kb PCR fragment was then cloned into EcoRV-EcoRI site of CMVp expression vector; expressed in transfected cells
T2 sequence (P23945 18-695 N112T/E197A/L198V): T1 sequence (P23945 18-695 N112T/E197A/L198V/L460R) with R443L
The experiment is described as follows: Alpha Screen cAMP accumulation, endogenous FSHR (WT). The class given is cell-based. Conditions: 293 cells expressing WT FSHR, FIG. 3. Here is the method: as §1, §2
(In general: Cyclic AMP is a second messenger, typically raised through Gs and lowered through Gi signalling.)

By EC50 is commonly meant the concentration at which the effect is half-maximal. The low end stands for an effect from little substance, the high end for a need for much substance.

The structures appear in SMILES notation. Changes are numbered by the printed parent chain.

Turning to `CCCCCc1ccc(C(=O)N2CCCCC2C(=O)Nc2ccc3c(c2)c2ccccc2n3CC)c(=O)o1` (centres unmarked) [Compound A, 1-[(2-oxo-6-pentyl-2H-pyran)-3-carbonyl]-piperidine-2-carboxylic acid-3-(9-ethylcarbazolyl) amide], the “efficacy for L460R version of FSHR compared with the WT receptor” value in experiment [1] was “better efficacy”. For the same molecule, the EC50 at endogenous FSHR ("WT") was around 3 nM.

The record behind these values is patent US20100317046A1, “Non-Endogenous, Constitutively Activated Versions of Human G Protein Coupled Receptor: FSHR” (priority 2002, published 2010).
